The test deals with IL-1α. Nature of the test: IL-1α secretion by UV-B irradiated excised human skin explants (ELISA), marker for antiinflammatory activity. The class given is cell-based. The conditions noted are these: applied before and after UV-B irradiation, * significant p < 0.05. The protocol:
The effect of phytosphingosine was assessed ex vivo on excised human skin explants.
The explant was exposed to UV-B rays as a physical, proinflammatory stress.
The antiinflammatory effect of phytosphingosine was evaluated by measurement of the amount of the cytokine IL-1α secreted in the incubation medium of the skin explants.
• Preparation of the human skin explants obtained after plastic surgery using standard techniques. • Application of the test product: • resp. 0% (Placebo), 0.2 and 0.5% phytosphingosine (PS) in Propylene glycol:Ethanol (60:40). • Dexamethasone (1 μM) was used as the reference product. • The products were applied before and after irradiation (˜2 mg/cm^2) • IL-1α secretion was measured in the incubation medium of the skin explants, using a standard ELISA technique. • Each experimental condition was performed in triplicate.

SMILES strings stand for the structures.

Regarding `C[C@@H]1C[C@H]2[C@@H]3CCC4=CC(=O)C=C[C@]4(C)[C@@]3(F)[C@@H](O)C[C@]2(C)[C@@]1(O)C(=O)CO` [Dexamethasone, reference compound], the “IL-1α secreted in the incubation medium” value (Dexamethasone 1 μM, before UV-B 48, after UV-B 205, placebo 165) is given as 116* pg per ml.
On to `CCCCCCCCCCCCCCC(O)C(O)C(N)CO` (stereo not drawn) [PS, 2-amino-octadecane-1,3,4-triol], for which the “IL-1α secreted in the incubation medium” value (0.2% PS in Propylene glycol:Ethanol (60:40), ~2 mg/cm^2, placebo 165) is reported as 82* pg per ml and the “IL-1α secreted in the incubation medium” value (0.5% PS in Propylene glycol:Ethanol (60:40), ~2 mg/cm^2, placebo 165) is reported as 92* pg per ml.
